One may read the IC50 as the concentration that inhibits the measured activity by half.

Consider one compound from patent publication US5663197A, “2-(1-hydroxyethyl)-5-hydroxynaphtho[2,3-b]furan-4,9-dione and antitumor agents comprising this compound” (priority 1992, dated 1997).

Data set [1] is described as follows: Solubility. The data set is classed as physicochemical.
For data set [2], the system named is Normal human tracheal epithelial cells. The experiment in a line: In vitro growth test on normal cells, tracheal epithelial cells. It counts as cell-based. The protocol:
(§1) An appropriate amount of NFD was dissolved in DMSO to give a 1.0 mg/ml stock solution, which was diluted as necessary before use.
(§2) The following cells in the late logarithmic phase were harvested after treatment with trypsin (containing 0.25% trypsin and 0.02% EDTA; 37° C., 3 min) and used in the test: human lung adenocarcinoma cell lines A-549, VMRC-LCD and SK-LU-1, human lung squamous cell carcinoma Calu-1 cells, human colon adenocarcinoma WiDr cells, human prostate cancer LNCaP cells, human vaginal squamous cell carcinoma A-431 cells, human cervical carcinoma HeLa cells, human cholangiocarcinoma HuCC-T1 cells, mouse skin cancer melanoma B16 (M4) cells, human pancreatic carcinoma ASPC-1 cells, human neuroblastoma IMR-132 cells, human lung small cell carcinoma SCCH-194 cells, human uninary bladder carcinoma T24 cells, human renal cell carcinoma […] cells, human gastric cancer NUGC-2 cells, human thyroid carcinoma 8305C cells, human hepatoma HUH-7 cells, human ovarian carcinoma TYK-nu cells and human chorio carcinoma BeWo cells. […] These cells were plated onto a 96-well microplate at a density of 5-10×10^3 cells/cm^2 using DMEM or RPMI-1640 medium containing 10% fetal bovine serum and cultured for 24 hours in a conventional manner, after which a pre-determined amount of NFD dissolved in DMSO was added to each well. […]

Data set [3] has as its system malignant tumor cells. The experiment in a line: In vitro antitumor test, panel of malignant tumor cells. It counts as cell-based, human and mouse. The protocol:
as §1
The antitumor effect of NFD on human cancer cells and mouse cancer cells was assessed according to the following methods.
as §2, with “cells. Suspension cultures of human breast cancer MRK-nu-1 cells, human malignant B-cell lymphoma cells and human chronic myelogenous leukemia K562 cells were used to harvest the cells to be used in the test.” for “cells.”, “well. Cultivation was continued, and the number of viable cells was counted after 24, 48 and 72 hours.” for “well.”
(§3) Growth inhibitory action and lethal activity of NFD on various types of malignant tumor cells and normal human cells listed above were evaluated by counting the number of viable cells in each well of the 96-well microplate. […]

For data set [4], the system named is Human malignant B-cell lymphoma cells. The experiment in a line: In vitro antitumor test (trypan blue exclusion viable cell count), malignant B-cell lymphoma. It counts as cell-based. Conditions: 72 h, three days exposure, read-out: LD50 (IC50), 50% growth-inhibitory dose.
In data set [5] the test system is Normal human N6KA fibroblasts. The experiment in a line: In vitro growth test on normal cells, N6KA fibroblasts. The data set is classed as cell-based. As for the experimental part:
as §1, §2

Data set [6] concerns carcinogenic promotion (skin papillomas in mice). The experiment in a line: Inhibition of two-step skin carcinogenesis in mice skin. The data set is classed as in vivo, mouse (female ICR). Conditions: DMBA initiator, TPA promoter, 20 weeks; FIG. 28 (NFD 85 nmol), FIG. 29 (lapacoal).
Protocol: Female ICR mice were used as test animals. Fifteen mice were housed in a cage and kept on a commercial pellet diet and drinking water ad libitum until the end of the experiment. The mice were purchased at their age of six-week-old. Dorsal hair of mice was shaved, and next day, 390 nmol of 7,12-dimethylbenz(a)anthracene (DMBA) in 0.1 ml acetone was applied, as an initiator, on the shaved back. One week later, 1.7 nmol of 12-O-tetradecanoylphorbol-13-acetate (TPA) in 0.1 ml acetone was applied, as a promoter, to the same place twice a week. This procedure was repeated for 20 weeks.
Mice were observed once a week for the number of papillomas larger than 1 mm, and the experimental results were given as the percentage of papilloma-bearing mice in each group and the number of papillomas per mouse.
The test system of data set [7] is Human pancreatic carcinoma ASPC-1 cells. The experiment in a line: In vitro antitumor test (trypan blue exclusion viable cell count), ASPC-1. It counts as cell-based. The protocol:
as §1, §2

Data set [8] has as its system Mouse melanoma B16 (M4) cells. The experiment in a line: In vitro antitumor test (trypan blue exclusion viable cell count), B16 (M4). The data set is classed as cell-based. As for the experimental part: as §1, §2
The subject of data set [9] is Normal human peripheral blood lymphocytes. The experiment in a line: In vitro growth test on normal cells, peripheral blood lymphocytes. It counts as cell-based. The protocol: as §1, §2
Data set [10] deals with Human prostate cancer LNCaP cells. The experiment in a line: In vitro antitumor test (trypan blue exclusion viable cell count), LNCaP. It counts as cell-based. As for the experimental part: as §1
as §2, with “cells. Suspension cultures of human breast cancer MRK-nu-1 cells, human malignant B-cell lymphoma cells and human chronic myelogenous leukemia K562 cells were used to harvest the cells to be used in the test.” for “cells.”, “well. Cultivation was continued, and the number of viable cells was counted after 24, 48 and 72 hours.” for “well.”
as §3

Each structure is given as a SMILES string. ≈ marks a conversion by molar mass, not a printed value.

For `CC(O)c1cc2c(o1)C(=O)c1cccc(O)c1C2=O` (stereo not drawn) [NFD, 2-(1-hydroxyethyl)-5-hydroxynaphtho[2,3-b]furan-4,9-dione], the solubility in chloroform result in data set [1] (chloroform) was “freely soluble”. In addition, the solubility in dimethylsulfoxide result in data set [1] (dimethylsulfoxide) is recorded as “freely soluble”. Also, the solubility in water entry in [1] (water) was “slightly soluble”. Besides, the “adverse effects on growth of normal cells” value was “no adverse effects” in [2] (FIG. 25, at concentrations which cause necrosis in tumor cells); “no adverse effects” in [5] (FIG. 24, at concentrations which cause necrosis in tumor cells); “no adverse effects” in data set [9] (FIG. 26, at concentrations which cause necrosis in tumor cells). Also, the IC50 in [2] (Homo sapiens, Epithelial cell, 72 h, normal tracheal epithelial cells, three days exposure, read-out: LD50 (IC50), 50% growth-inhibitory dose) is greater than 0.055 µg/mL; in data set [3] (read-out: LD50 (IC50) range over malignant tumor cells), 0.0055 to 0.025 µg/mL (≈ 0.0213 to 0.0968 µM); in data set [4] it was 0.0056 µg/mL (≈ 0.0217 µM); in [5] (Homo sapiens, Fibroblast, 72 h, N6KA normal fibroblasts, three days exposure, read-out: LD50 (IC50), 50% growth-inhibitory dose), 0.084 µg/mL (≈ 0.325 µM); in data set [7] (ASPC1, 72 h, ASPC-1, three days exposure, read-out: LD50 (IC50), 50% growth-inhibitory dose), 0.017 µg/mL (≈ 0.0658 µM); in [8] (72 h, B16 (M4), three days exposure, read-out: LD50 (IC50), 50% growth-inhibitory dose), 0.0067 µg/mL (≈ 0.0259 µM). In addition, the IC50 in [9] (Homo sapiens, Lymphocyte, 72 h, normal peripheral blood lymphocytes, three days exposure, read-out: LD50 (IC50), 50% growth-inhibitory dose) was 0.084 µg/mL (≈ 0.325 µM); in data set [10] (Homo sapiens, 72 h, LNCaP, three days exposure, read-out: LD50 (IC50), 50% growth-inhibitory dose), 0.0017 µg/mL (≈ 0.00658 µM). Besides, the “selective toxicity to tumor cells” value in [3] (23 listed tumor cells) is “exhibits selective toxicity”. For the same compound, the “growth inhibition of tumor cells” value in data set [3] (at low concentrations, 23 listed tumor cells) is recorded as “remarkably inhibits the growth”. In data set [6], the “inhibitory effect on carcinogenic promotion in skin” value was “inhibitory effect”. The IC (almost complete) in data set [7] (ASPC1, FIG. 13, read-out: concentration inhibiting growth almost completely) is 0.0335 µg/mL; in data set [8] (FIG. 10, read-out: concentration inhibiting growth almost completely), 0.0112 µg/mL; in [10] (FIG. 6 (LNCaP; sentence prints human colon adenocarcinoma cells), read-out: concentration inhibiting growth almost completely) it was 0.0112 µg/mL. Moreover, in data set [10] (FIG. 6 (LNCaP; sentence prints human colon adenocarcinoma cells)), the “concentration causing necrosis in almost all tumor cells” value lay in the range of 22.4 to 55.9 ng/mL.
